pIC50: −log10 of the molar value. Blank lines part the entries; values can stand above or below the molecule they belong to.
What was measured:
[1] = target: T1, Proto-oncogene tyrosine-protein kinase ROS (Homo sapiens, UniProt P08922)
A549 = assay: cells; conditions: Homo sapiens, A549, 72 h
HCC78 = assay: cells; conditions: Homo sapiens, HCC78, 72 h
Description: Antiproliferative activity against ROS1-addicted human HCC78 cells assessed as reduction in cell viability incubated for 72 hrs by MTT assay

NCI-H3122 = assay: cells; conditions: Homo sapiens, NCI-H3122, 72 h
Description: Antiproliferative activity against ALK-addicted human NCI-H3122 cells assessed as reduction in cell viability incubated for 72 hrs by MTT assay

[2] = target: T1, Proto-oncogene tyrosine-protein kinase ROS; remark: listed apart in the source
[3] = target: Insulin-like growth factor 1 receptor (Homo sapiens) (UniProt P08069); assay: Inhibition of IGF1R (unknown origin) at 1 uM
[4] = tested on: ALK tyrosine kinase receptor (Homo sapiens), Q9UM73 [L1196M]; assay: Potency index, ratio of crizotinib IC50 to compound IC50 for ALK L1196M mutant (unknown origin) at 1 uM
[5] = target: T2, ALK tyrosine kinase receptor (Homo sapiens, UniProt Q9UM73)
Target sequence in this assay (Q9UM73 whole entry): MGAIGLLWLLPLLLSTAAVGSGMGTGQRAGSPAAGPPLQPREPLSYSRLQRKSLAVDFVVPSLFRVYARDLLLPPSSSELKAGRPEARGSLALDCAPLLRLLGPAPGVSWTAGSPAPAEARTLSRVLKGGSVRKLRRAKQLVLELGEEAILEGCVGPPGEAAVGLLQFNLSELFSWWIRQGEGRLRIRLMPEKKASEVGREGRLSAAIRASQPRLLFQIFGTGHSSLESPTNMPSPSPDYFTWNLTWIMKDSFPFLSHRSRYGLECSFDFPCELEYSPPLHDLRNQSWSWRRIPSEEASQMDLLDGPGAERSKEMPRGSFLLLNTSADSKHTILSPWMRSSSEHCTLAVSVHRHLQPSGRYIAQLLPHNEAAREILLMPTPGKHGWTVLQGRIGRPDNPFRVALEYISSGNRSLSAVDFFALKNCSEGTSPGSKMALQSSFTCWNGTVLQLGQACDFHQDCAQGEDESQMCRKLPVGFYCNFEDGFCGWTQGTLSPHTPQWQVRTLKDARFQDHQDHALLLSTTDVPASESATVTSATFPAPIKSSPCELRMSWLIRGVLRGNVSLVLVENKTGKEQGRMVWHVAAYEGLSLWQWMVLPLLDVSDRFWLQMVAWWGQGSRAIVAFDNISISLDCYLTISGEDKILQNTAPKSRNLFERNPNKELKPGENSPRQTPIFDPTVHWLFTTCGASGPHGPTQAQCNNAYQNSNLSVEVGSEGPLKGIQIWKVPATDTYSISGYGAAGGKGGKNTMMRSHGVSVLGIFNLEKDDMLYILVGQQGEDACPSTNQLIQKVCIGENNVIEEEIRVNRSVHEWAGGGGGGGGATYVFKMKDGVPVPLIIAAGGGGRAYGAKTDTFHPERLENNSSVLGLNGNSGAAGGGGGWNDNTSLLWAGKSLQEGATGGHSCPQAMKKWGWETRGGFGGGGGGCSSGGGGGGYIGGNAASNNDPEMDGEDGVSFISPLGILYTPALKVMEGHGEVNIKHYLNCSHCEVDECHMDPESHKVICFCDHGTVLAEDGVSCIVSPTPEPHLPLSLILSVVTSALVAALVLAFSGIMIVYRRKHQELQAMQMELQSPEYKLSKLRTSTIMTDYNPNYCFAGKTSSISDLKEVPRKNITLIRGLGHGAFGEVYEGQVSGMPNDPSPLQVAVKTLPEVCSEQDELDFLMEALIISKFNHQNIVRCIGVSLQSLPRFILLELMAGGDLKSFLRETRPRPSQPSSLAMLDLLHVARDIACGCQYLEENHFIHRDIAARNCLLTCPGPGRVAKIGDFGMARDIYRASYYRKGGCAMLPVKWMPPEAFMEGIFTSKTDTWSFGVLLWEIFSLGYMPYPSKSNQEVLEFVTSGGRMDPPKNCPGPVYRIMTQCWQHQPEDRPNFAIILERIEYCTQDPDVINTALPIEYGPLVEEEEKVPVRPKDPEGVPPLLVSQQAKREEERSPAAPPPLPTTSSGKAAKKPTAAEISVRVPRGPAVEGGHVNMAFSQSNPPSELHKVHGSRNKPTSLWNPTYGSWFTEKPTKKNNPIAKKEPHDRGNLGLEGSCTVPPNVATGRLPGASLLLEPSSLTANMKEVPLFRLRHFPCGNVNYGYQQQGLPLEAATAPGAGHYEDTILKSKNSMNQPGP

[6] = target: T2, ALK tyrosine kinase receptor; conditions: at 1 µM
[7] = target: Hepatocyte growth factor receptor (Homo sapiens) (UniProt P08581); assay: Inhibition of MET (unknown origin) at 1 uM
[8] = target: Epidermal growth factor receptor (Homo sapiens) (UniProt P00533); assay: Inhibition of EGFR (unknown origin) at 1 uM
BaF3 [9] = assay: Potency index, ratio of crizotinib IC50 to compound IC50 for mouse BAF3 cells expressing CD74/ROS1 G2032R mutant incubated for 72 hrs by CCK8 assay; type: functional
[10] = tested on: ALK tyrosine kinase receptor (Homo sapiens), Q9UM73 [C1156Y]; conditions: at 1 µM
BaF3 [11] = assay: cells; conditions: Mus musculus, BaF3, 72 h
Description: Antiproliferative activity against mouse BAF3 cells expressing wild type CD74/ROS1 assessed as reduction in cell viability incubated for 72 hrs by CCK8 assay

[12] = target: Tyrosine-protein kinase Fer (Homo sapiens) (UniProt P16591); assay: Inhibition of FER (unknown origin) at 1 uM
[13] = tested on: ALK tyrosine kinase receptor (Homo sapiens), Q9UM73 [R1275Q]; conditions: at 1 µM
[14] = target: Leukocyte tyrosine kinase receptor (Homo sapiens) (UniProt P29376); assay: Inhibition of LTK (unknown origin) at 1 uM
[15] = target: Proto-oncogene tyrosine-protein kinase receptor Ret (Homo sapiens) (UniProt P07949); assay: Inhibition of RET (unknown origin) at 1 uM
[16] = target: Serine/threonine-protein kinase Nek2 (Homo sapiens) (UniProt P51955); assay: Inhibition of NEK2 (unknown origin) at 1 uM
[17] = target: Tyrosine-protein kinase Fes/Fps (Homo sapiens) (UniProt P07332); assay: Inhibition of FES (unknown origin) at 1 uM
[18] = target: Vascular endothelial growth factor receptor 2 (Homo sapiens) (UniProt P35968); assay: Inhibition of KDR (unknown origin) at 1 uM
[19] = target: Tyrosine-protein kinase BTK (Homo sapiens) (UniProt Q06187); assay: Inhibition of BTK (unknown origin) at 1 uM
BaF3 [20] = assay: cells; conditions: Mus musculus, BaF3, 72 h; remark: listed apart in the source
Description: Antiproliferative activity against mouse BAF3 cells expressing CD74/ROS1 L2026M mutant assessed as reduction in cell viability incubated for 72 hrs by CCK8 assay

[21] = target: ALK tyrosine kinase receptor (Homo sapiens, UniProt Q9UM73, L1196M)
Description: Inhibition of ALK L1196M mutant (unknown origin) at 1 uM

[22] = target: Activated CDC42 kinase 1 (Homo sapiens) (UniProt Q07912); assay: Inhibition of TNK2 (unknown origin) at 1 uM
[23] = tested on: ALK tyrosine kinase receptor (Homo sapiens), Q9UM73 [F1174L]; conditions: at 1 µM
[24] = target: Mitogen-activated protein kinase 9 (Homo sapiens) (UniProt P45984); assay: Inhibition of MAPK9 (unknown origin) at 1 uM
BaF3 [25] = assay: cells; conditions: Mus musculus, BaF3, 72 h; remark: listed apart in the source
Description: Antiproliferative activity against mouse BAF3 cells expressing CD74/ROS1 G2032R mutant assessed as reduction in cell viability incubated for 72 hrs by CCK8 assay

[26] = target: CDK2/Cyclin A2 (Homo sapiens) (UniProt P24941+P20248); assay: Inhibition of CDK2/cyclinA (unknown origin) at 1 uM; type: protein-complex assay
[27] = tested on: ALK tyrosine kinase receptor (Homo sapiens), Q9UM73 [L1196M]; conditions: at 1 µM
Description: Inhibition of ALK L1196M mutant (unknown origin) at 1 uM relative to control

[28] = target: Tyrosine-protein kinase JAK2 (Homo sapiens) (UniProt O60674); assay: Inhibition of JAK2 (unknown origin) at 1 uM

T1 sequence (P08922 whole entry): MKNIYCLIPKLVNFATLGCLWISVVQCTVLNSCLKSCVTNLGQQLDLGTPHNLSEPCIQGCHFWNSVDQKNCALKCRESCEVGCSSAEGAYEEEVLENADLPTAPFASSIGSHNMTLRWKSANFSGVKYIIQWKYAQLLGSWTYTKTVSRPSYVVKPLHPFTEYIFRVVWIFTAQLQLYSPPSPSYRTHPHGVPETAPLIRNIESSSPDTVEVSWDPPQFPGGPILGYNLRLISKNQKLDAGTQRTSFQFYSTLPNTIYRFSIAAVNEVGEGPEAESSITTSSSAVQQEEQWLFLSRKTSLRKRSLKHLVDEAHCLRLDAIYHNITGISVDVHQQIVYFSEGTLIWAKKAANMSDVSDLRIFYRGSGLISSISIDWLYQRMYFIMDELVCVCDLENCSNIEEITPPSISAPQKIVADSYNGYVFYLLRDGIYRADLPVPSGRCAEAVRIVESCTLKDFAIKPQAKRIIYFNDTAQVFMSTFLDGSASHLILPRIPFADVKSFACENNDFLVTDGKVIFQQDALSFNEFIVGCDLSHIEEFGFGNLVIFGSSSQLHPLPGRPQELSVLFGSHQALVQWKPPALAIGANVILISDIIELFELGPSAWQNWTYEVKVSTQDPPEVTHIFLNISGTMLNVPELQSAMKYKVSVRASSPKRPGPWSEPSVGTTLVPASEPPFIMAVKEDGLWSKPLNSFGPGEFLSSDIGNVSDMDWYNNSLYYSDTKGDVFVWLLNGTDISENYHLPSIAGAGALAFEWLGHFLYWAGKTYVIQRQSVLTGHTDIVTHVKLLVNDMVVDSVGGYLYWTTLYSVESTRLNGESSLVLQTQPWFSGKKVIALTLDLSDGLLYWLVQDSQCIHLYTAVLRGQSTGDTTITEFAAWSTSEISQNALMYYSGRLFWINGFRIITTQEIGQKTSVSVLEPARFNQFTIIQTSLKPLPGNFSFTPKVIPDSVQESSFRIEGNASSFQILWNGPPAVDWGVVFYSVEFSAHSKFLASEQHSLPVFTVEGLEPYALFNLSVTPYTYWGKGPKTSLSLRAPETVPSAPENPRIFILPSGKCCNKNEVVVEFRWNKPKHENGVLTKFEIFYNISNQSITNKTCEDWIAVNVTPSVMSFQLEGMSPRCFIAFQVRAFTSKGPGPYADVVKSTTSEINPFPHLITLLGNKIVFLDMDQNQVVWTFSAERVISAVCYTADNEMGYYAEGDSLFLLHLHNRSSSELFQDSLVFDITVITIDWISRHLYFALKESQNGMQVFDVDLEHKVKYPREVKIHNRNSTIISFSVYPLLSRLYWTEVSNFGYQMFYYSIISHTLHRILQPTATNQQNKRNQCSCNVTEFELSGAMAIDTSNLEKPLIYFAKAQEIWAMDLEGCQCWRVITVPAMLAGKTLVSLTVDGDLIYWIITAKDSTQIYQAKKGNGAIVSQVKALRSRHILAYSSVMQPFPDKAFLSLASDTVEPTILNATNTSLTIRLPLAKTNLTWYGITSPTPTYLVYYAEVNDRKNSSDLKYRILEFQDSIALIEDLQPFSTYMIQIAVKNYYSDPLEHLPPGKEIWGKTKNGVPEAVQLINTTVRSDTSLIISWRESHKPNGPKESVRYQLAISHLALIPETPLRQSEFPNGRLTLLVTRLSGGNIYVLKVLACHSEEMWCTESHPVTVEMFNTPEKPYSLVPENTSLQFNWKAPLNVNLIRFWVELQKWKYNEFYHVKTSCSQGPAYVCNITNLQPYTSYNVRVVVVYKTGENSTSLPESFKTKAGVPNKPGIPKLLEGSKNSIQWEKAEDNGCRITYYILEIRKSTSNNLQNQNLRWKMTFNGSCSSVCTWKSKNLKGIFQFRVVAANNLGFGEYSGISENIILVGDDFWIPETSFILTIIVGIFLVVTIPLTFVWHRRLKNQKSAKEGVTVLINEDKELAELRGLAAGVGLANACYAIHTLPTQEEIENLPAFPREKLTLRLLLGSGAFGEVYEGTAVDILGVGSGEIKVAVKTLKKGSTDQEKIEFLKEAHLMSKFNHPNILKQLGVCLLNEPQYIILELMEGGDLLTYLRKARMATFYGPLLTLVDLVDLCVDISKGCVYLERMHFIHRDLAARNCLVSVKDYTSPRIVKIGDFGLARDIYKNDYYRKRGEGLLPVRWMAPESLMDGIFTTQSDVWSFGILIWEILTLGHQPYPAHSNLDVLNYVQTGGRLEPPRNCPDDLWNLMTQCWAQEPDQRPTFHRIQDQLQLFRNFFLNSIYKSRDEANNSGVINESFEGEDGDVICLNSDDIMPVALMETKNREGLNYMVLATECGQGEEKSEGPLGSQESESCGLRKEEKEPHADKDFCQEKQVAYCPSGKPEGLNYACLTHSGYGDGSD
ALK tyrosine kinase receptor (Homo sapiens), Q9UM73 [L1196M], sequence (Q9UM73 whole entry L1196M, looked up): as the sequence (Q9UM73 whole entry) above, with L1196M counted along it
ALK tyrosine kinase receptor (Homo sapiens), Q9UM73 [R1275Q], sequence (Q9UM73 whole entry R1275Q): as the sequence (Q9UM73 whole entry) above, with R1275Q counted along it
Proto-oncogene tyrosine-protein kinase receptor Ret (Homo sapiens), sequence (P07949 whole entry): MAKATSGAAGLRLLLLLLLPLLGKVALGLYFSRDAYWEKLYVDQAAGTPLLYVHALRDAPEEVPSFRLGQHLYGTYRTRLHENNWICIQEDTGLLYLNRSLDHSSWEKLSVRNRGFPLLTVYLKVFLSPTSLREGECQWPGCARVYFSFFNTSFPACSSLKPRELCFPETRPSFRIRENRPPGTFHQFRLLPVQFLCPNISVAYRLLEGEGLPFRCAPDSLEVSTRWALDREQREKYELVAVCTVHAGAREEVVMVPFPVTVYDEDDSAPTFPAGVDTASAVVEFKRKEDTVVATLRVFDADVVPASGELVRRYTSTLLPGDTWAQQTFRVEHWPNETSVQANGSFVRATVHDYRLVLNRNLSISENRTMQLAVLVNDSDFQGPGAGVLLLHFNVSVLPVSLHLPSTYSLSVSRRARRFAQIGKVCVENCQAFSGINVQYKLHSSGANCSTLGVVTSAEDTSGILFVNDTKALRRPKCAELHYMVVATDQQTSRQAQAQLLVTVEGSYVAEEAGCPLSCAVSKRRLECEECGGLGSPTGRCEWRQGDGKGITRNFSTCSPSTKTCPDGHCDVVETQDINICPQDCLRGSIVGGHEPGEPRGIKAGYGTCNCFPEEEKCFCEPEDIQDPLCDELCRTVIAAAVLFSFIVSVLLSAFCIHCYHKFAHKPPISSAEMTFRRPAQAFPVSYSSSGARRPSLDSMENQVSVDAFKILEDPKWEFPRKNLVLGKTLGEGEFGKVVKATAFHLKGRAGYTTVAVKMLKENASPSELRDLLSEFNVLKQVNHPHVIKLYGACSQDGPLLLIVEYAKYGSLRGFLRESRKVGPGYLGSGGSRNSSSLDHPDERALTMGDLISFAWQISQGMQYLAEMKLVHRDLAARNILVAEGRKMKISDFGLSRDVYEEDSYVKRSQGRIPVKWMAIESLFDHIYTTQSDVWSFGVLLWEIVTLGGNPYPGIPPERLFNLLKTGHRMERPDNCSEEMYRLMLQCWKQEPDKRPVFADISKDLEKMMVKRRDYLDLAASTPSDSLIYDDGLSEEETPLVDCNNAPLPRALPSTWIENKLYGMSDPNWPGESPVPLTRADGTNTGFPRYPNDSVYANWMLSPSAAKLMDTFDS

pIC50 [1]: 5.90
pIC50 (A549): 4.95
pIC50 (HCC78): 4.46
pIC50 (NCI-H3122): 4.69
SMILES: Cc1nn(C)cc1Nc1cc(N2CCC[C@H](C(=O)NCc3ccc(OC(F)(F)F)cc3)C2)ccn1

pIC50 [1]: < 5.00
pIC50 (A549): 5.55
pIC50 (HCC78): 4.96
pIC50 (NCI-H3122): 5.05
SMILES: COc1cc(N2CCC(N3CCN(C)CC3)CC2)ccc1Nc1cc(N2CCC[C@@H](C(=O)NCc3ccc(OC(F)(F)F)cc3)C2)ccn1

pIC50 [1]: < 5.00
pIC50 (A549): 5.15
pIC50 (HCC78): 5.11
pIC50 (NCI-H3122): 5.29
SMILES: Cc1cc(Nc2cc(N3CCC[C@H](C(=O)NCc4ccc(OC(F)(F)F)cc4)C3)ccn2)ccc1NC1CCN(C)CC1

pIC50 [1]: 5.14
pIC50 (A549): 5.01
pIC50 (HCC78): 4.09
pIC50 (NCI-H3122): 4.86
SMILES: Cc1nn(C)cc1Nc1cc(N2CCC[C@@H](C(=O)NCc3ccc(OC(F)(F)F)cc3)C2)ccn1

pIC50 (A549): < 4.00
pIC50 (HCC78): < 4.00
pIC50 (NCI-H3122): < 4.00
IC50 [2]: Not Active
SMILES: COc1ccc(CNC(=O)[C@H]2CCCN(c3ccnc(Nc4cn(C)nc4C)c3)C2)cc1OC

inhibition [3]: 3%
Ratio IC50 [4]: 2
pIC50 [5]: 6.76
pIC50 [1]: 6.28
inhibition [6]: 95%
pIC50 (A549): 5.44
inhibition [7]: 6%
inhibition [8]: 11%
inhibition [10]: 100%
pIC50 (BaF3 [11]): 6.86
inhibition [12]: 6%
inhibition [13]: 92%
inhibition [14]: 91%
inhibition [15]: -3%
pIC50 (HCC78): 4.97
inhibition [16]: -7%
inhibition [17]: -1%
pIC50 (NCI-H3122): 5.19
inhibition [18]: -3%
inhibition [19]: -5%
pIC50 (BaF3 [20]): 6.63
pIC50 [21]: 7.38
inhibition [22]: -3%
inhibition [23]: 80%
inhibition [24]: -10%
pIC50 (BaF3 [25]): 6.98
inhibition [26]: 1%
inhibition [27]: 93%
inhibition [28]: 11%
SMILES: COc1cc(N2CCNCC2)ccc1Nc1cc(N2CCC[C@H](C(=O)NCc3ccc(OC(F)(F)F)cc3)C2)ccn1
Ratio IC50 (BaF3 [9]): 6

pIC50 (A549): 4.76
pIC50 (HCC78): 4.44
pIC50 (NCI-H3122): 4.35
IC50 [2]: Not Active
SMILES: O=C(NCc1ccc(OC(F)(F)F)cc1)[C@H]1CCCN(c2ccnc(Nc3ncccn3)c2)C1

pIC50 (A549): < 4.00
pIC50 (HCC78): < 4.00
pIC50 (NCI-H3122): < 4.00
IC50 [2]: Not Active
SMILES: COc1ccc(CNC(=O)[C@H]2CCCN(c3ccnc(Nc4cnn(C5CCN(C)CC5)c4)c3)C2)cc1OC

pIC50 (A549): 4.27
pIC50 (HCC78): 4.06
pIC50 (NCI-H3122): 4.82
IC50 [2]: Not Active
SMILES: CN1CCC(n2cc(Nc3cc(N4CCC[C@H](C(=O)NCc5ccc(C#N)cc5)C4)ccn3)cn2)CC1

pIC50 (A549): < 4.00
pIC50 (HCC78): 4.08
pIC50 (NCI-H3122): 4.29
IC50 [2]: Not Active
SMILES: COc1ccc(CNC(=O)[C@H]2CCCN(c3ccnc(Nc4cnn(C5CCNCC5)c4)c3)C2)cc1OC

pIC50 [5]: 6.25
pIC50 [1]: 5.92
inhibition [6]: 76%
pIC50 (A549): 5.29
pIC50 (HCC78): 4.60
pIC50 (NCI-H3122): 4.97
SMILES: COc1cc(N2CCNCC2)ccc1Nc1cc(N2CCC[C@@H](C(=O)NCc3ccc(OC(F)(F)F)cc3)C2)ccn1

pIC50 [1]: < 5.00
pIC50 (A549): 5.19
pIC50 (HCC78): 4.87
pIC50 (NCI-H3122): 4.98
SMILES: Cc1cc(Nc2cc(N3CCC[C@@H](C(=O)NCc4ccc(OC(F)(F)F)cc4)C3)ccn2)ccc1NC1CCN(C)CC1

pIC50 (A549): < 4.00
pIC50 (HCC78): < 4.00
pIC50 (NCI-H3122): < 4.00
IC50 [2]: Not Active
SMILES: COc1ccc(CNC(=O)[C@H]2CCCN(c3ccnc(Nc4cnn(C)c4)c3)C2)cc1OC

pIC50 [1]: 5.65
pIC50 (A549): 5.18
pIC50 (HCC78): 4.96
pIC50 (NCI-H3122): 4.78
SMILES: COc1cc(N2CCC(N3CCN(C)CC3)CC2)ccc1Nc1cc(N2CCC[C@H](C(=O)NCc3ccc(OC(F)(F)F)cc3)C2)ccn1

pIC50 [1]: < 5.00
pIC50 (A549): 5.19
pIC50 (HCC78): 4.86
pIC50 (NCI-H3122): 5.08
SMILES: COc1cc(N2CCC(N3CCOCC3)CC2)ccc1Nc1cc(N2CCC[C@@H](C(=O)NCc3ccc(OC(F)(F)F)cc3)C2)ccn1

pIC50 [1]: 4.92
pIC50 (A549): 4.90
pIC50 (HCC78): 4.61
pIC50 (NCI-H3122): 4.56
SMILES: COc1cc(Nc2cc(N3CCC[C@H](C(=O)NCc4ccc(C)cc4)C3)ccn2)cc(OC)c1OC

pIC50 (A549): 4.40
pIC50 (HCC78): 4.17
pIC50 (NCI-H3122): 4.39
IC50 [2]: Not Active
SMILES: Cc1ccc(CNC(=O)[C@H]2CCCN(c3ccnc(Nc4cn(C)nc4C)c3)C2)cc1

pIC50 [1]: 5.97
pIC50 (A549): 5.11
pIC50 (HCC78): 4.83
pIC50 (NCI-H3122): 5.12
SMILES: COc1cc(N2CCN(C)CC2)ccc1Nc1cc(N2CCC[C@H](C(=O)NCc3ccc(OC(F)(F)F)cc3)C2)ccn1

pIC50 [1]: 5.47
pIC50 (A549): 5.16
pIC50 (HCC78): 4.82
pIC50 (NCI-H3122): 5.24
SMILES: COc1cc(N2CCC(N3CCOCC3)CC2)ccc1Nc1cc(N2CCC[C@H](C(=O)NCc3ccc(OC(F)(F)F)cc3)C2)ccn1

From ChEMBL document CHEMBL4351011, “Design, synthesis and biological evaluations of 2-amino-4-(1-piperidine) pyridine derivatives as novel anti crizotinib-resistant ALK/ROS1 dual inhibitors” (Eur J Med Chem, 2019)
